US12152264B2, “Phosphinothricin dehydrogenase mutant, genetically engineered bacterium and one-pot multi-enzyme synchronous directed evolution method” (ZHEJIANG UNIVERSITY OF TECHNOLOGY, priority 2020, dated 2024)

What was measured:
[1] = target: Pseudomonas fluorescens phosphinothricin dehydrogenase (PPTDH, PfGluDH; WP_150701510.1) mutant A164G_R205K_T332A, SEQ ID No.1 (Pseudomonas azerbaijanoccidentalis, UniProt A0ABS6QXK2, A164G/R205K/T332A); format: biochemical; settings: A164G_R205K_T332A; pH 7.0, 40° C.
[2] = target: Pseudomonas fluorescens phosphinothricin dehydrogenase (PPTDH, PfGluDH; NCBI accession number WP_150701510.1), wild type (Pseudomonas azerbaijanoccidentalis, UniProt A0ABS6QXK2); test: Determination of kinetic parameters of wild-type phosphinothricin dehydrogenase (PPO reductive amination with NADPH); settings: pH 7.0, 40° C.

Structure (SMILES): NC(=O)C1=CN([C@@H]2O[C@H](COP(=O)(O)OP(=O)(O)OC[C@H]3O[C@@H](n4cnc5c(N)ncnc54)[C@H](OP(=O)(O)O)[C@@H]3O)[C@@H](O)[C@H]2O)C=CC1 [NADPH]
- kcat/Km^A (NADPH) [1]: 1.05761e+07 M⁻¹ s⁻¹
- kcat/Km^A (NADPH) [2]: 53360 M⁻¹ s⁻¹
